The source of these data is ChEMBL document CHEMBL1201862, “PubChem BioAssay data set” (2004).

Calls of active or inactive are those of the source.

One test concerns the target T1, Bcl-2-related protein A1 (Mus musculus, UniProt Q07440).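 Also: confirmatory dose–response counterscreen on Bfl-1, used to check hits from a UBC13 polyubiquitin inhibitor campaign.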
T1 sequence (Q07440 whole entry): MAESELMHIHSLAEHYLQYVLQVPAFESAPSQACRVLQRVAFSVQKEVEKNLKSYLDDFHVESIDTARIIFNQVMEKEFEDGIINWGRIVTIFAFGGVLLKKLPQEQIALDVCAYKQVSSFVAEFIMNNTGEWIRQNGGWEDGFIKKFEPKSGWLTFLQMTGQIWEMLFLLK
The test is classed as functional.

Test [1] concerns the target T2, Ubiquitin-conjugating enzyme E2 N (Homo sapiens, UniProt P61088).
T2 sequence (P61088 whole entry): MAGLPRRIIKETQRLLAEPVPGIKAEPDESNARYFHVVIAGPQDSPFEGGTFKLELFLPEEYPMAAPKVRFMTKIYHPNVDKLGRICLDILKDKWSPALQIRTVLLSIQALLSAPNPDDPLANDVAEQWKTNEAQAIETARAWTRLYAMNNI
Type of test: functional.

Test [2] has as its target T2, Ubiquitin-conjugating enzyme E2 N. Type of test: functional. The source holds these as a separate data set.
Test [3] deals with T3, Mannose-6-phosphate isomerase (Homo sapiens, UniProt P34949).
T3 sequence (P34949 whole entry): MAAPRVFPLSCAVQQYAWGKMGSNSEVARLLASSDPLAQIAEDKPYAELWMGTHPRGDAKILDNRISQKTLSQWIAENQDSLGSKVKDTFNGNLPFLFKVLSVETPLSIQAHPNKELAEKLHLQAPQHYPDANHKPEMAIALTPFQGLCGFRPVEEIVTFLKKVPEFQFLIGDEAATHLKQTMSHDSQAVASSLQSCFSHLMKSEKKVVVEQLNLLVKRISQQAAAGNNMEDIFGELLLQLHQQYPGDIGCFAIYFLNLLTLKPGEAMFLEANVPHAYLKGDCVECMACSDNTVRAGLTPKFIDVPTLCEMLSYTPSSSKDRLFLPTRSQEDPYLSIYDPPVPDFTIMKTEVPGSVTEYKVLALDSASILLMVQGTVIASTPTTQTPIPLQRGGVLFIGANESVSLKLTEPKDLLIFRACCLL
In words: inhibitors of human PMI, primary screen, biochemical, fluorescence intensity, coupled assay (AID 1209).

For test [4], the target named is T3, Mannose-6-phosphate isomerase. Kind of test: PMI enzyme inhibitors, confirmation, biochemical, fluorescence intensity (AID 1535).
The next test has as its target Phosphomannomutase 2 (Homo sapiens, UniProt O15305). Kind of test: Counter screen SAR assay for PMM2 inhibitors via a fluorescence intensity assay. [Related pubchem assays (depositor defined):AID1545, AID1574].
For test [5], the target named is G-protein coupled receptor 55 (Homo sapiens, UniProt Q9Y2T6). In words: GPR55 antagonists, SAR follow-up, counter-screen for GPR35 antagonist project, imaging, image-based (AID 2397). Type of test: functional.
Test [6] in a line: NIH-3T3 fibroblast cytotoxicity, dose response, cytotoxicity control, cell-based, fluorescence, Alamar Blue, secondary assay (AID 2327).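 Also: NIH-3T3 mouse fibroblasts cultured with fluconazole at 8 µg/mL.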 Type of test: functional.
In another test the target is SUMO-activating enzyme (Homo sapiens, UniProt Q9UBT2). Kind of test: SUMOylation inhibitor hit validation, confirmation, SUMOylation inhibitor project, biochemical, AlphaScreen (AID 2018). Type of test: functional.
Test [7] in a line: C. albicans growth with fluconazole, confirmation, fluorescence, retest (AID 2467). Type of test: functional, cell-based.
Test [8] has as its target T4, Replicative DNA helicase DnaB (Mycobacterium tuberculosis, UniProt P9WMR3).
T4 sequence (P9WMR3 whole entry): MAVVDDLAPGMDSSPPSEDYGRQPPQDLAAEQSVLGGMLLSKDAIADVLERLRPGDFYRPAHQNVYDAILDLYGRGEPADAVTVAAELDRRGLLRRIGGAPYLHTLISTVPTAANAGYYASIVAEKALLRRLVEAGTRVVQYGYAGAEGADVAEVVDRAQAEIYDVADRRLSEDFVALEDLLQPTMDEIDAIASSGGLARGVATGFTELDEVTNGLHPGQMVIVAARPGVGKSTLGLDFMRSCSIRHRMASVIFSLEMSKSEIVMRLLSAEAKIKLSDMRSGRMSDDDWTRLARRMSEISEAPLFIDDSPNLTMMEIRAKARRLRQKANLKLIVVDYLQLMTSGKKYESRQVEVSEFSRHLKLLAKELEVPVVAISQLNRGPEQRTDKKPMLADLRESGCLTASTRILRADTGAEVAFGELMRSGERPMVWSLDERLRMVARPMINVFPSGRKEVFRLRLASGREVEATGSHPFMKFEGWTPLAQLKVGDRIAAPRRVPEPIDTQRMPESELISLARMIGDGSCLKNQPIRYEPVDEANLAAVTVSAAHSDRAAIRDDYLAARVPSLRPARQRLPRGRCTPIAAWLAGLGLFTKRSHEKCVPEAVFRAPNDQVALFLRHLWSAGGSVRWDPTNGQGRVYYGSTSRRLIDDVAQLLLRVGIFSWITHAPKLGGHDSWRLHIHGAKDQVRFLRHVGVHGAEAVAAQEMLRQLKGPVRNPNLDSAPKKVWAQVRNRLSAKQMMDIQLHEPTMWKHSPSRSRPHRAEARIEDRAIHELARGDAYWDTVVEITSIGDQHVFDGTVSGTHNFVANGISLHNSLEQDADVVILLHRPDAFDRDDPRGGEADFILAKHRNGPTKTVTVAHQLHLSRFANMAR
In words: DnaB intein splicing inhibitors, dose response, biochemical, cell-free fluorescence (AID 449749). The test is classed as functional.

The target of test [9] is T5, Apoptotic protease-activating factor 1 (Homo sapiens, UniProt O14727).
T5 sequence (O14727 whole entry): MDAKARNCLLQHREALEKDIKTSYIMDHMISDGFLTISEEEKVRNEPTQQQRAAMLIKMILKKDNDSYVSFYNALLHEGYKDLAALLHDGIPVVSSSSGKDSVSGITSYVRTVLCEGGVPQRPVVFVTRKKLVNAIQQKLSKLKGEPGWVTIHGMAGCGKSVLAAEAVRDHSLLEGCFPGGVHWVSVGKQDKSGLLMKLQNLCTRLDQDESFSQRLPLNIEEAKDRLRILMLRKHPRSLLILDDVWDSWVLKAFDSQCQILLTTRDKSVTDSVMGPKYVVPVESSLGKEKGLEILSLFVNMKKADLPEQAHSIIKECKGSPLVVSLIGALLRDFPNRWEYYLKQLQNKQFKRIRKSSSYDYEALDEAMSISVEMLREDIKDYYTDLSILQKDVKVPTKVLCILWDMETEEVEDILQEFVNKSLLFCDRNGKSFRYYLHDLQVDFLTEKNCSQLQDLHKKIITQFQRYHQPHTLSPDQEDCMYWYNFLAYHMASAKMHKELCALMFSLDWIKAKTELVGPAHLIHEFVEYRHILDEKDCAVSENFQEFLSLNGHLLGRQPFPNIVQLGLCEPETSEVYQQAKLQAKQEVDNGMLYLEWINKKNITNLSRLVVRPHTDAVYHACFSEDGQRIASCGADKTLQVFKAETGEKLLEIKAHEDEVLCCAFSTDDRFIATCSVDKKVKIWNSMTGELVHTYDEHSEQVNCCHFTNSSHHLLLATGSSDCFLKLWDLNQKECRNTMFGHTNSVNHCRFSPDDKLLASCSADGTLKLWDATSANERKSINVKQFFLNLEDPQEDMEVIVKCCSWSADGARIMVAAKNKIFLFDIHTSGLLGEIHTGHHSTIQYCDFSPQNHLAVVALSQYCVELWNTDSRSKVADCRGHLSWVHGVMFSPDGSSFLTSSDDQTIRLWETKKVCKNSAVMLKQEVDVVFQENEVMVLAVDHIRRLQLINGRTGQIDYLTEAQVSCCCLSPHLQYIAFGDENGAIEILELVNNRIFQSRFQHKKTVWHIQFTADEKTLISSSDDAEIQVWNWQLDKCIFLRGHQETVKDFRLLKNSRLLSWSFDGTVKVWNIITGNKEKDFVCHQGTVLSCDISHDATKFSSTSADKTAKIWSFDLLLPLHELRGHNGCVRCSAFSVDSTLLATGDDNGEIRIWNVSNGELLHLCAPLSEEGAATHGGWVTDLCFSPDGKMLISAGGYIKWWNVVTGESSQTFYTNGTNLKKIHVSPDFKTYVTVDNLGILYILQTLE
Type of test: functional.

For the next test, the target named is T6, Protein RecA (Mycobacterium tuberculosis, UniProt P9WHJ3).
T6 sequence (P9WHJ3 whole entry): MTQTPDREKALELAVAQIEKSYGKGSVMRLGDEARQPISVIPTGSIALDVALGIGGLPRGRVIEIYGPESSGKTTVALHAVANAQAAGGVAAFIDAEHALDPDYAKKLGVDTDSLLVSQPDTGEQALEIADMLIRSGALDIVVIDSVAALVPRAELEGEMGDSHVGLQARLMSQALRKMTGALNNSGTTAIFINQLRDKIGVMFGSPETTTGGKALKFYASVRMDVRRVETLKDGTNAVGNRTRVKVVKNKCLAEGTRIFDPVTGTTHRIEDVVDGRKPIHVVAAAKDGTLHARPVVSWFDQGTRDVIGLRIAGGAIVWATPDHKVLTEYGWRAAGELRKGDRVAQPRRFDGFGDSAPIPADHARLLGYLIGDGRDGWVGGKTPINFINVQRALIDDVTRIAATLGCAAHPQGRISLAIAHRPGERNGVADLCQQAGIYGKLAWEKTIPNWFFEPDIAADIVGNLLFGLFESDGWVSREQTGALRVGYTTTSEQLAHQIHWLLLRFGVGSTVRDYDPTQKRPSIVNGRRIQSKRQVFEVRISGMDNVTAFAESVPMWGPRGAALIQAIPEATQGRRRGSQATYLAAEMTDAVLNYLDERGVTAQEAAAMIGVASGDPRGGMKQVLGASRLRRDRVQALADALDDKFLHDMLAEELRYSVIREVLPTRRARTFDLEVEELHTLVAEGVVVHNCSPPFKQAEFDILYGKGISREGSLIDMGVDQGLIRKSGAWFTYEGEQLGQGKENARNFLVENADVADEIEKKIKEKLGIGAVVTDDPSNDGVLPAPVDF
Kind of test: Fluorescence Cell-Free Homogeneous Dose Retest to Identify Inhibitors of RecA-Intein Splicing Activity. [Related pubchem assays (depositor defined):AID2097, AID2223, AID489010, AID492950]. The test is classed as functional.

Test [10] can be described thus: inhibitors of firefly luciferase expression or activity, dose response, H4 neuroglioma cells, luminescence (AID 1990). Type of test: functional, cell-based.
Test [11] is described as follows: Luminescence Cell-Based Dose Response HTS to Identify Inhibitors of 5'UTR Stem-Loop Driven Prion Protein mRNA Translation in H4 Neuroglioblastoma Cells. [Related pubchem assays: 1827 (Project Summary), 1813 (Primary HTS)]. Type of test: functional.
The next test concerns Vero. In words: host cell cytotoxicity of antiviral hits, dose response, cytotoxicity control for West Nile virus antiviral project, secondary assay (AID 1650). Type of test: functional. To be noted: Chlorocebus sabaeus.
A short description of test [12]: inhibitors of SNCA 5'UTR-driven reporter translation, confirmation, H4 neuroglioma cells, luminescence (AID 1988). Type of test: functional, cell-based.

Sequence of SUMO-activating enzyme (Q9UBE0 whole entry): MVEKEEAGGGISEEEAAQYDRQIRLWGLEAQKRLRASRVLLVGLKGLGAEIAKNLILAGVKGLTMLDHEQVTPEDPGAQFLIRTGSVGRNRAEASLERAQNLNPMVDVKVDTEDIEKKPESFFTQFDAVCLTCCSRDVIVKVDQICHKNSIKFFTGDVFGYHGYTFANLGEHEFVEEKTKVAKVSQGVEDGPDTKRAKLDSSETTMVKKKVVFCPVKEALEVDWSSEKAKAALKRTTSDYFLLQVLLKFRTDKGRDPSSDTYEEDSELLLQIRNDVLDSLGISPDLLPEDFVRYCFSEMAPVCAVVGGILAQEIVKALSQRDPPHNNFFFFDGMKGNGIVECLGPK
Sequence of SUMO-activating enzyme (Q9UBT2 whole entry): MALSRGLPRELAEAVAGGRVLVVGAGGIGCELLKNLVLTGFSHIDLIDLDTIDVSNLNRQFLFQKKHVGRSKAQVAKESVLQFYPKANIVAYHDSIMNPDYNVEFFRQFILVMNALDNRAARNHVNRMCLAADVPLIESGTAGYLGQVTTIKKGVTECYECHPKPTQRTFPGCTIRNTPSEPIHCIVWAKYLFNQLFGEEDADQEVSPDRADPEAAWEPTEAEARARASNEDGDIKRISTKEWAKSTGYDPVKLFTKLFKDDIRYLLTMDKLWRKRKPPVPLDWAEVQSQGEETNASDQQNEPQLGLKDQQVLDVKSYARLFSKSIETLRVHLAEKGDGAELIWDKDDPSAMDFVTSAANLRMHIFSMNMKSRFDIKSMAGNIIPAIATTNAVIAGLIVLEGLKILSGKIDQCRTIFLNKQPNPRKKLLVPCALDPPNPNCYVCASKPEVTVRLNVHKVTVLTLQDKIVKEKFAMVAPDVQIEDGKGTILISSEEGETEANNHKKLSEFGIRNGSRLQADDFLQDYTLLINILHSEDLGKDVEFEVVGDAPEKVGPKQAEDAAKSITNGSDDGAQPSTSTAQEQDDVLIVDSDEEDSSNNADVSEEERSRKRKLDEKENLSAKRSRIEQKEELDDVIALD
Sequence of Phosphomannomutase 2 (O15305 whole entry): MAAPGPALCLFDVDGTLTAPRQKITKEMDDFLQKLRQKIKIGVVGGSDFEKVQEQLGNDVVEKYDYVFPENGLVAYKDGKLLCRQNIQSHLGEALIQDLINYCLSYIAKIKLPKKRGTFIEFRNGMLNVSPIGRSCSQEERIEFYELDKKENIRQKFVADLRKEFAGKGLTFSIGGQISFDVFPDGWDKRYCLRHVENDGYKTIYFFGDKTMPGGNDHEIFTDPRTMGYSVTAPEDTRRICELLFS
Sequence of G-protein coupled receptor 55 (Q9Y2T6 whole entry): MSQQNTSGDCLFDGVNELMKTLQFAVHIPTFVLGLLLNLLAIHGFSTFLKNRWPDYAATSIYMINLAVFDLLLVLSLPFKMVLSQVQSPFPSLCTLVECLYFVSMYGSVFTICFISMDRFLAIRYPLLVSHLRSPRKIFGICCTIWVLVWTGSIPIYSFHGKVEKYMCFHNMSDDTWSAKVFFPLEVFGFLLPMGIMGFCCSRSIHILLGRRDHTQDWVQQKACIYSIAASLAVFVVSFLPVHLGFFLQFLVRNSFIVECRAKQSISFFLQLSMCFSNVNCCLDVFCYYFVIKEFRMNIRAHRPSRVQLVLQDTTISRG

As to `CCOc1ccc(N(C(=O)c2snc(C(N)=O)c2N)C(CC)C(=O)NC2CCCC2)cc1` (stereo unspecified), the IC50 was > 20 µM (inactive) at Bcl-2-related protein A1, 10.1 µM (active) in test [1] and 12.3 µM (active) in test [2].

As to `CCC(=O)NC(=S)NNC(=O)c1ccc(NC(=O)c2ccccc2)cc1`, the values for the IC50 (at Bcl-2-related protein A1; in [1]; in test [2]) were > 20 µM (inactive), 11.4 µM (active) and 3.81 µM (active), respectively.

As for `Cc1ccc(NC2Nc3cc(C)nn3S2)c(C)c1` (stereo unspecified), the values for the IC50 (in test [3]; in test [4]; on Phosphomannomutase 2) were 11.2 µM (active), > 50 µM (inactive) and > 100 µM (inactive), respectively.

In the case of `CCc1ccc(NC(=O)CSc2nc3ccsc3c(=O)n2Cc2ccc(OC)cc2)cc1`, the IC50 in [5] was > 32 µM (inactive).

With `O=[N+]([O-])c1cccc(/C=N/c2cccc3ccccc23)c1O`, the results for the 50% effective concentration (EC50) (in test [6]; in [7]; on Protein RecA) were 107 µM (active), 3.78 µM (active) and 41.9 µM (active), respectively. The half-maximal inhibitory concentration (IC50) on SUMO-activating enzyme is 20.4 µM (active); in [9], 56.6 µM (active). The half-maximal activity concentration (AC50) in [8] is 54.6 µM (active).

For `COc1ccc(NC(=O)C(=O)N/N=C\c2ccc(CNC(=O)C(=O)Nc3ccc(C)c(C)c3)o2)c(OC)c1`, the EC50 is 6.59 µM (active) in test [10], 9.34 µM (active) in test [11] and 5.4 µM (active) in [12]. Besides, the IC50 on SUMO-activating enzyme was 30.4 µM (active). Further, the cytotoxic concentration (CC50) with Vero is 15.1 µM (active).
